Values quoted from earlier work as cited in patent US20210369601A1, “Pharmaceutical Formulation” (Klaria Pharma Holding AB, priority 2018, published 2021).

Conditions: aqueous solution

## CNCC(O)c1ccc(O)c(O)c1 (centres unmarked) [adrenaline]
  pH of acceptable stability: < 5.5
  pH of optimal stability: 3-4
